Laboratory results reported in PMC7151078, “A Novel NMDA Receptor Antagonist Protects against Cognitive Decline Presented by Senescent Mice” (Pharmaceutics, 2020).

How the values were obtained:
CYP3A4 = target: T1, CYP3A4 (Homo sapiens, UniProt P08684); assay: Cytochrome inhibition, fluorescent detection (7-BFC and DBF substrates); format: in vitro ADME
T1 construct: host or cells: insect cell microsomes
Procedure: To screen the inhibition potential of the compounds, recombinant human cytochrome P450 enzymes (CYP1A2, CYP2C9, CYP2C19, CYP2D6, and CYP3A4) and probe substrates were used with the fluorescent detection method. Incubations were conducted in 200-µL volume 96 well microtiter plates (COSTAR 3915). Addition of cofactor-buffer mixture (KH2PO4 buffer, 1.3 mM NADP+, 3.3 mM MgCl2, 3.3 mM Glucose-6-phosphate and 0.4 U/mL Glucose-6-phosphate Dehydrogenase), supersomes control, standard inhibitors (Furafyline, Tranylzypromine, Ketoconazole, Sulfaphenazole, and Quinidine; from Sigma Aldrich), and test compounds to plates were carried out using a a liquid handling station (Zephyr Caliper). The plate was then pre-incubated at 37 °C for 5 min, and the reaction initiated by the addition of pre-warmed enzyme/substrate (E/S) mix. […] Fluorescence per well was measured using a fluorescence plate reader (Tecan M1000 pro), and the percentage of inhibition was calculated.

SAMR1 and SAMP8 mice = assay: Novel object recognition test (NORT); format: in vivo, mouse; settings: 5 mg/kg/day
Procedure: Male SAMR1 and SAMP8 mice (n = 41) with 20-weeks-old were used to carry out cognitive and molecular analysis. The animals were randomly divided into four groups: SAMR1 control (SR1 Ct) group (n = 11), SAMP8 control (SP8 Ct) group (n = 8), SAMR1 treated with RL-208 (SR1 RL-208 (5 mg/Kg)) group (n = 10) and SAMP8 treated with RL-208 (SP8 RL-208 (5 mg/Kg)) group (n = 12). Animals had free access to food and water, under standard temperature conditions (22±2 °C) and 12h:12h light-dark cycles (300 lux/0 lux). RL-208, (3,4,8,9-tetramethyltetracyclo[4.4.0.0^3,9.0^4,8]dec-1-yl)-methylamine hydrochloride, (5 mg/kg/day) was administered through drinking water for four weeks before starting the cognitive test. RL-208 was administered up to euthanasia (Figure 1A). Water consumption was controlled each week for each cage and strain. Afterwards, RL-208 concentration was adjusted accordingly to reach the optimal dose for each cage. The novel object recognition test (NORT) allows evaluating short- and long-term recognition memory involving cortical areas and the hippocampus. The experimental apparatus used for this test was a 90º, two-arm, 25-cm-long, 20-cm-high, and a 5-cm-wide black maze of black polyvinyl chloride (Figure 1D). The walls could be removed for easy cleaning with 70% ethanol to eliminate olfactory cues, and light intensity in mid-field was 30 lux. The objects to be discriminated were made of plastic and chosen not to frighten mice and without any part likely to be bitten. Before performing the test, the mice were individually habituated to the apparatus for 10 min during 3 consecutive days. On day four the next day, the animals were allowed to explore freely a 10 min acquisition trial (First trial), during which they were placed in the maze in the presence of two identical novel objects (A+A’ or B+B’) at the end of each arm. The mouse was then removed from the apparatus and returned to its home cage. A 10 min retention trial (Second trial) was carried out two hours later. […] The time that mice explored the novel object (TN) and time that mice explored the old object (TO) were measured from the video recordings from each trial session Exploration of an object was defined as pointing the nose towards the object at a distance ≤2 cms and/or touching it with the nose. […] To avoid object preference biases objects A and B were counterbalanced so that one-half of the animals in each experimental group were first exposed to object A and then to object B, whereas the other half first saw object B and then object A. To evaluate the cognitive performance, the discrimination index (DI) was calculated, which is defined as (TN-TO)/(TN+TO).

T1 sequence (P08684 whole entry): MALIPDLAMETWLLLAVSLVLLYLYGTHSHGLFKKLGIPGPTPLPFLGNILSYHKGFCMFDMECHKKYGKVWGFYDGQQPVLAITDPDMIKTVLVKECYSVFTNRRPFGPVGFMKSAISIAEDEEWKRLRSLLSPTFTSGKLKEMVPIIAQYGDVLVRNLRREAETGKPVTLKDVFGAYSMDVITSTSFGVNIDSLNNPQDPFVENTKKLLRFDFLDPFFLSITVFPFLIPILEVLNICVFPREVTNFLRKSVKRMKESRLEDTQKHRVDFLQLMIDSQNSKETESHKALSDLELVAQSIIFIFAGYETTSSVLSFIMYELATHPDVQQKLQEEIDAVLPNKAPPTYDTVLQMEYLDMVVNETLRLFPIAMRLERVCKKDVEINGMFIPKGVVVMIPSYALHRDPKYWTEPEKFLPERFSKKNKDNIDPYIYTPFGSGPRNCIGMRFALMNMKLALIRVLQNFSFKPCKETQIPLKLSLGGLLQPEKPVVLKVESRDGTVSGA

Compound: CC12CC3CC1(C)C1(C)CC3(CN)CC21C.Cl [RL-208, (3,4,8,9-tetramethyltetracyclo [4.4.0.0^3,9.0^4,8]dec-1-yl)methylamine hydrochloride]
- CYP3A4 (BFC) inhibition (CYP3A4; recombinant human CYP3A4, substrate BFC): 35 ± 4%
- CYP3A4 (DBF) inhibition (CYP3A4; recombinant human CYP3A4, substrate DBF): 3 ± 1%
- NORT short-term recognition memory (DI) (SAMR1 and SAMP8 mice; SP8 RL-208 vs SP8 Ct, 2 h retention): significant gain
- NORT long-term recognition memory (DI) (SAMR1 and SAMP8 mice; SP8 RL-208 vs SP8 Ct, 24 h retention): significant gain
- NORT long-term DI (SAMR1 and SAMP8 mice; between SR1 groups): no significant changes
- NORT short-term DI (SAMR1 and SAMP8 mice; between SR1 groups): no significant changes
